Among the data in publication PMC3794980, “Identification of Conserved and HLA Promiscuous DENV3 T-Cell Epitopes” (PLoS Neglected Tropical Diseases, 2013) are IC50 values, retold here.

Each structure is given as a SMILES string. Like-named read-outs stand apart in the source and are kept apart here.

Assay in all cases: biochemical
What all share (assay type): binding

Experiment [1] concerns the target DRB1*0101 (Homo sapiens, UniProt P01903+P01911, A100R/D57E/F55L/F60I/F76Y/I96L/L162R/M171V/P40L/Q125E/R42F/V115G/Y59C).
Experiment [2] addresses DRB1*0301 (Homo sapiens, UniProt P01903+P01911, A100K/A102G/A103R/A169T/F55Y/I96L/K41T/L162R/M171V/P40S/Q125H/Q178H/Q39Y/R42S/S66N/T106N/T262R/W38E/Y61H).
In experiment [3] the target is DRB1*0401 (Homo sapiens, UniProt P01903+P01911, A100K/A169T/F76Y/I96L/K127E/L162R/M171V/N62H/P40V/Q125Y/R42H/S133A/S149N/S66Y/V115G/V209L/W38E).
In experiment [4] the target is DRB1*0404 (Homo sapiens, UniProt P01903+P01911, A100R/A169T/F76Y/I96L/K127E/L162R/M171V/N62H/P40V/Q125Y/R42H/S133A/S149N/S66Y/V209L/W38E).
In experiment [5] the target is DRB1*0405 (Homo sapiens, UniProt P01903+P01911, A100R/A169T/D86S/F76Y/I96L/K127E/L162R/M171V/N62H/P40V/Q125Y/R42H/S133A/S149N/S66Y/V115G/V209L/W38E).
In experiment [6] the target is DRB1*0701 (Homo sapiens, UniProt P01903+P01911, A100R/A102G/A103Q/D57E/D86V/E43K/F76Y/K127E/L162R/M171V/P40G/Q125H/Q99D/R33Q/R42Y/R54Q/S133A/S66F/T210M/V115G/Y107V/Y59L/Y89S).
The target in experiment [7] is DRB1*0802 (Homo sapiens, UniProt P01903+P01911, A100R/A103L/A169T/F76Y/H45Y/I96F/K41T/L162R/M171V/P40S/Q125H/Q178H/Q39Y/Q99D/R218S/R42G/S66Y/V115G/W38E).
Experiment [8] deals with DRB1*0901 (Homo sapiens, UniProt P01903+P01911, A100R/A103E/D57H/D86V/F55Y/F60I/F76Y/I96F/K127E/L162R/M171V/P40D/Q125H/Q99R/R33Q/R42F/S133A/S66N/T210M/V115G/W38K/Y107V/Y59G/Y89S).
Experiment [9] deals with DRB1*1101 (Homo sapiens, UniProt P01903+P01911, A100R/A169T/A87E/I96F/K41T/L162R/M171V/P40S/Q125H/Q178H/Q39Y/Q99D/R42S/S66Y/T262R/V115G/W38E).
For experiment [10], the target named is DRB1*1302 (Homo sapiens, UniProt P01903+P01911, A100E/A169T/K41T/L162R/M171V/P40S/Q125H/Q178H/Q39Y/Q99D/R42S/S66N/T262R/V115G/W38E/Y61H).
Experiment [11] deals with DRB1*1501 (Homo sapiens, UniProt P01903+P01911).
Experiment [12] concerns the target DRB5*0101 (Homo sapiens, UniProt P01903+Q30154).
The target in experiment [13] is DRB3*0101 (Homo sapiens, UniProt P01903+P79483).
Experiment [14] has as its target DRB4*0101 (Homo sapiens, UniProt P01903+P13762, G164S).
[15] abbreviates: competitive inhibition of radiolabeled standard peptide, '-' distinct from ND, read-out: Binding Affinity (nM) DRB1*0901.
Where [16] appears, read: competitive inhibition of radiolabeled standard peptide, '-' distinct from ND, read-out: Binding Affinity (nM) DRB1*1302.
Where [17] appears, read: competitive inhibition of radiolabeled standard peptide, DRB1*0901, read-out: Binding Affinity (nM) DRB1*0901.
Where [18] appears, read: competitive inhibition of radiolabeled standard peptide, DRB1*1302, read-out: Binding Affinity (nM) DRB1*1302.

DRB1*1302, sequence (P01903 26-254 limits assumed, other chains not shown): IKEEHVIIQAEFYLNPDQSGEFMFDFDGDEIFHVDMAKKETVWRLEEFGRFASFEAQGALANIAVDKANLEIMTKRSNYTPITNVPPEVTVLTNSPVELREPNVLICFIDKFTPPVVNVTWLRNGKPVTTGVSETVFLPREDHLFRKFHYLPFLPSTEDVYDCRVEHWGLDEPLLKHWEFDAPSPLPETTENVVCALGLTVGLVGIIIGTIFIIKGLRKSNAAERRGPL
DRB1*0301, sequence (P01903 26-254, other chains not shown): as the sequence (P01903 26-254 limits assumed, other chains not shown) above
DRB1*1101, sequence (P01903 26-254, other chains not shown): as the sequence (P01903 26-254 limits assumed, other chains not shown) above

For `CC[C@H](C)[C@H](NC(=O)[C@H](C)NC(=O)[C@H](CC(N)=O)NC(=O)[C@H](CO)NC(=O)[C@H](C)NC(=O)[C@H](CC(C)C)NC(=O)[C@H](CCCNC(=N)N)NC(=O)[C@H](CC(C)C)NC(=O)[C@H](CC(=O)O)NC(=O)[C@H](CCCNC(=N)N)NC(=O)[C@H](CCCNC(=N)N)NC(=O)[C@H](Cc1c[nH]cn1)NC(=O)[C@H](Cc1ccccc1)NC(=O)[C@H](Cc1ccc(O)cc1)NC(=O)[C@@H](N)CCSC)C(=O)O` [NS5 765-779], the IC50 in experiment [1] turned out to be 41 nM; in experiment [2], 1280 nM; in experiment [3], 4.7 nM; in experiment [4], 34 nM; in [5], 18 nM; in [6], 18 nM. Moreover, the IC50 in experiment [7] was found to be 7.8 nM; in experiment [8], 61 nM; in experiment [9], 17 nM; in [10], 4.9 nM; in experiment [11], 118 nM; in experiment [12] it was 726 nM.
Take `CC[C@H](C)[C@H](NC(=O)[C@H](CC(C)C)NC(=O)[C@H](CCCNC(=N)N)NC(=O)CNC(=O)[C@@H](N)CC(N)=O)C(=O)N[C@H](C(=O)N[C@@H](C)C(=O)N[C@@H](CC(N)=O)C(=O)N1CCC[C@H]1C(=O)N[C@H](C(=O)N[C@H](C(=O)N[C@H](C(=O)N[C@@H](CCCCN)C(=O)N[C@@H](CCCCN)C(=O)N[C@@H](CCC(=O)O)C(=O)O)[C@@H](C)O)C(C)C)C(C)C)[C@@H](C)O` [Envelope 346-360]: the IC50 in experiment [1] came to 4.5 nM; in experiment [2], 216 nM; in experiment [3] it was 343 nM; in experiment [4] it was 15300 nM; in [5], 6740 nM; in [6], 68 nM. Moreover, the IC50 in [7] amounted to 288 nM; in [8] (setting [15]), 333 nM; in [9], 10600 nM; in experiment [10] (setting [16]) it was 15 nM; in experiment [11], 332 nM; in [13], 18300 nM. The compound further registered an IC50 in [14] of 3000 nM.
With `CC[C@H](C)[C@H](NC(=O)[C@H](CC(N)=O)NC(=O)CNC(=O)[C@@H](NC(=O)CNC(=O)[C@H](CC(N)=O)NC(=O)[C@@H](N)CO)[C@@H](C)O)C(=O)N[C@H](C(=O)N[C@@H](CO)C(=O)N[C@@H](CO)C(=O)N[C@H](C(=O)N[C@@H](CC(N)=O)C(=O)N[C@@H](CCSC)C(=O)N[C@H](C(=O)N[C@@H](CO)C(=O)N[C@@H](CCCNC(=N)N)C(=O)N[C@@H](CC(C)C)C(=O)O)C(C)C)C(C)C)C(C)C` [NS5 221-237], the IC50 was found to be 4 nM in [1]; 15 nM in [2]; 1.1 nM in experiment [3]; 84 nM in [4]; 25 nM in experiment [5]; 21 nM in experiment [6]. Besides, the IC50 in experiment [7] stood at 5.8 nM; in [8] (setting [17]) it was 45 nM; in experiment [9], 31 nM; in [10] (setting [18]) it was 65 nM; in experiment [11] it was 20 nM; in experiment [13] it was 6300 nM. In experiment [14], the IC50 stood at 60 nM.
On to `CC(C)C[C@H](NC(=O)[C@H](C)NC(=O)[C@H](CCC(=O)O)NC(=O)[C@H](Cc1ccccc1)NC(=O)[C@H](CCC(=O)O)NC(=O)[C@H](CC(C)C)NC(=O)[C@H](Cc1ccc(O)cc1)NC(=O)[C@H](CCCNC(=N)N)NC(=O)[C@H](C)NC(=O)CNC(=O)[C@H](CC(C)C)NC(=O)[C@@H](N)Cc1c[nH]c2ccccc12)C(=O)NCC(=O)N[C@@H](Cc1ccccc1)C(=O)N[C@@H](CC(C)C)C(=O)N[C@@H](CC(N)=O)C(=O)N[C@@H](CCC(=O)O)C(=O)O` [NS5 477-493], for which the IC50 was determined as 12 nM in experiment [1]; 2420 nM in [2]; 67 nM in experiment [3]; 124 nM in experiment [4]; 54 nM in [5]; 26 nM in [6]. For the same compound, the IC50 worked out at 2280 nM in experiment [7]; 79 nM in experiment [8] (setting [17]); 710 nM in experiment [9]; 9750 nM in experiment [10] (setting [18]); 338 nM in [11]; 26 nM in [13]. The compound further yielded an IC50 in experiment [14] of 274 nM.
With `C[C@@H](O)[C@H](NC(=O)[C@H](CO)NC(=O)[C@H](CO)NC(=O)[C@H](Cc1c[nH]cn1)NC(=O)[C@H](CCC(=O)O)NC(=O)[C@H](CCC(=O)O)NC(=O)[C@@H](N)CCCCN)C(=O)N[C@@H](Cc1c[nH]c2ccccc12)C(=O)N[C@@H](Cc1c[nH]cn1)C(=O)N[C@@H](Cc1ccc(O)cc1)C(=O)N[C@@H](CC(=O)O)C(=O)N[C@@H](CC(=O)O)C(=O)N[C@@H](CCC(=O)O)C(=O)N[C@@H](CC(N)=O)C(=O)N1CCC[C@H]1C(=O)N[C@@H](Cc1ccc(O)cc1)C(=O)N[C@@H](CCCCN)C(=O)O` [NS5 284-300], the IC50 in experiment [1] is 2100 nM; in experiment [2] it was 9.3 nM; in experiment [3], 306 nM; in [4], 18200 nM; in [5] it was 8690 nM; in experiment [6], 2490 nM. The IC50 worked out at 1540 nM in experiment [7]; 8140 nM in experiment [8] (setting [17]); 1400 nM in experiment [9]; 2030 nM in [10] (setting [18]); 5900 nM in [11]; 17 nM in experiment [13]. This compound registered an IC50 in experiment [14] of 14100 nM.
For `CC[C@H](C)[C@H](NC(=O)[C@H](C)NC(=O)[C@H](CC(N)=O)NC(=O)[C@H](CO)NC(=O)[C@H](C)NC(=O)[C@H](CC(C)C)NC(=O)[C@H](CCCNC(=N)N)NC(=O)[C@H](CC(C)C)NC(=O)[C@H](CC(=O)O)NC(=O)[C@H](CCCNC(=N)N)NC(=O)[C@@H](N)CCCNC(=N)N)C(=O)N[C@@H](CS)C(=O)N[C@@H](CO)C(=O)N[C@@H](C)C(=O)N[C@H](C(=O)N1CCC[C@H]1C(=O)N[C@H](C(=O)O)C(C)C)C(C)C` [NS5 769-785], the IC50 in experiment [1] is 28 nM; in experiment [2], 409 nM; in experiment [3] it was 3.6 nM; in experiment [4] it was 93 nM; in experiment [5], 16 nM; in experiment [6], 121 nM. Besides, the IC50 in [7] was 28 nM; in experiment [8] (setting [17]), 61 nM; in [9] it was 79 nM; in experiment [10] (setting [18]), 4.5 nM; in [11], 21 nM; in experiment [14], 212 nM.
As to `CC(C)C[C@H](NC(=O)[C@@H](NC(=O)CNC(=O)[C@H](CC(N)=O)NC(=O)[C@H](CO)NC(=O)[C@H](Cc1c[nH]c2ccccc12)NC(=O)[C@H](CC(C)C)NC(=O)[C@@H](NC(=O)[C@H](Cc1c[nH]cn1)NC(=O)[C@H](CO)NC(=O)[C@H](CCCCN)NC(=O)[C@@H]1CCCN1C(=O)[C@@H](N)Cc1c[nH]c2ccccc12)[C@@H](C)O)C(C)C)C(=O)N[C@@H](CCC(=O)O)C(=O)N[C@@H](CO)C(=O)O` [NS1 225-239], the IC50 in experiment [1] was determined as 3920 nM; in experiment [2], 520 nM; in experiment [3], 322 nM; in experiment [4] it was 3930 nM; in experiment [5] it was 4420 nM; in experiment [6], 5690 nM. Also, the IC50 in experiment [7] is 4830 nM; in [8] (setting [15]), 9390 nM; in [9] it was 12900 nM; in experiment [10] (setting [16]), 59 nM; in [11], 4120 nM; in experiment [14], 6540 nM.
